We go through one molecule from patent US20210196724A1, “BIARYL COMPOSITIONS AND METHODS FOR MODULATING A KINASE CASCADE” (Athenex, Inc., priority 2016, published 2021).

The subject of data set [1] is U87-luc human glioblastoma subcutaneous xenograft. Briefly: U87-luc human glioblastoma subcutaneous xenograft tumor model. The format is in vivo, athymic nude mice. An excerpt:
The anti-tumor activity of Compound 121, as a single agent, was studied in a U87-luc human glioblastoma subcutaneous xenograft tumor model. Significant endpoints were used to assess the treatment effects on subcutaneous tumor growth, as determined by tumor growth inhibition.
Human glioblastoma U87 cells (1×10^6 cells) were implanted into the right flank of athymic nude mice via subcutaneous injection. Dosing was initiated when the average tumor size reached 90-100 mm^3, which was designated as Day 1.
Compound 121 was dosed at 5 mg/kg once per day through Days 1-7 and dosed 2.5 mg/kg once per day through Days 15-21. A control group of mice (N=7) was administered a vehicle per the same schedule. Tumor volume was determined every 2 to 3 days via bidimensional caliper measurements. Body weight and general observations were recorded.
The mice were euthanized once the tumor reached 2000 mm^3 in volume.
Tumor growth inhibition (TGI) was calculated with the following formula:
TGI=(1−(mean volume of treated tumors)/(mean volume of control tumors))×100.

Data set [2] is described as follows: Pharmacokinetic properties after IV and PO administration. The format is in vivo.
The subject of data set [3] is GL261 cells, sub-cutaneous. As to the kind of experiment: Re-challenge of long-term survivors with sub-cutaneous GL261 cells. As to conditions: long term survival (LTS) mice after Compound 121 oral therapy, not treated in re-challenge phase. The format is in vivo, C57BL/6 mice. Here is the method:
(§1) The anti-tumor activity of Compound 121, as a single agent, was studied in the GL261 murine model of human glioblastoma. Murine GL261 glioblastoma cells were injected intra-cranially into syngeneic, immune-competent hosts (C57BL/6). In order for oral therapeutics to be effective, it is required that the therapeutic be able to cross the blood-brain barrier in order to achieve sufficient levels in the brain to exert an anti-tumor effect. Survival was the major endpoint for the study. The mice either succumbed to the tumor or were euthanized based on severity of tumor-dependent morbidity. Mice that achieved long-term survival (>80 days) were re-challenged with a sub-cutaneous injection of GL261 cells to assess the development of a durable immune response to GL261. Mice that underwent the re-challenge phase were not treated with Compound 121.
Re-challenge phase: Mice surviving past 80 days were injected with GL261 cell subcutaneously on Day 93. A control group (naïve C57BL/6 mice, N=5) were also injected with GL261 cells subcutaneously. Tumor volumes were calculated from bidimensional caliper measurements every 3 to 4 days. Further, all mice were administered oral doses of a Bifidobacterium mixture on three separate occasions. The objective of the administration of Bifidobacterium was to transiently modify the intestinal microbiome as a means to influence the immune response to GL261. […]

Data set [4] has as its system GL261 glioblastoma cells injected intra-cranially. As to the kind of experiment: GL261 murine model of glioblastoma (intra-cranial), survival. The class given is in vivo, C57BL/6 mice. As to conditions: orally once per day at 1 mg/kg for 45 days. As to the method:
as §1
GL261 cells (1×10^5 cells) were implanted into the brain of a C57BL/6 host using stereotactice injection. Compound 121 was dosed orally once per day at 1 mg/kg (N=10) for 45 days beginning 3 days post-tumor cell implantation. Compound Y was dosed orally once per day at 5 mg/kg (N=10) for 45 days beginning 3 days post-tumor implantation. A vehicle was administered to a control group of mice (N=10) per the same schedule.
Mice were monitored for signs of tumor dependent morbidity, including head tilt, hunching, ataxia, and limb weakness. Mice were euthanized when cumulative signs of high tumor burden were evident.

Data set [5] can be described thus: Brain permeability (brain:plasma ratio). The format is in vivo. As to conditions: read-out: Brain:Plasma (B:P) Average. As to the method: Brain permeability can be measured by various methods known in the art. For example, brain permeability can be measured by calculating the ratio between the concentration of a compound of the application in the brain and the concentration of the compound in the plasma (i.e., BP ratio). In one aspect, a compound of the application has a B:P ratio of at least 1.0, 1.1, 1.2, 1.3, 1.4, 1.5, 1.6, 1.7, 1.8, 1.9, or 2.0 at 1 hour after administration of the compound to a subject. In one aspect, a compound of the application has a B:P ratio of at least 1.5, 1.6, 1.7, 1.8, 1.9, or 2.0 at 1 hour after administration of the compound to a subject. In one aspect, a compound of the application has a B:P ratio of at least 1.4, 1.5, 1.6, 1.7, 1.8, 1.9, 2.0, 2.1, 2.2, or 2.3 at 2 hours after administration of the compound to a subject. In one aspect, a compound of the application has a B:P ratio of at least 1.9, 2.0, 2.1, 2.2, or 2.3 at 2 hours after administration of the compound to a subject. In one aspect, a compound of the application has a B:P ratio of at least 1.7, 1.8, 1.9, 2.0, 2.1, 2.2, 2.3, 2.4, or 2.5 at 4 hours after administration of the compound to a subject. In one aspect, a compound of the application has a B:P ratio of at least 2.2, 2.3, 2.4, or 2.5 at 4 hours after administration of the compound to a subject.

[6] abbreviates: Day 12, orally dosed 5 mg/kg once per day Days 1-7.
[7] abbreviates: in vivo, IV Administration (5 mg/kg).

For the molecule `Cc1cc(N2CCOC[C@@H]2C)ccc1-c1ccc(CC(=O)NCc2ccc(F)cc2)nc1` [Compound 121], in data set [1] (5 mg/kg once per day Days 1-7, 2.5 mg/kg once per day Days 15-21), the “Tumor growth (tumor volumes in individual mice over time)” value was “repressed tumor growth”. In addition, the “Mean tumor volume compared to the control group” value in data set [1] (Day 12, P<0.05) is “significantly reduced”. In data set [1] (setting [6]), the “% TGI (tumor growth inhibition)” value came out at 76.8% and the “Mean Tumor Volume ± SEM” value amounted to 442.9 ± 67.2 mm3. Moreover, the “Time to terminal sacrifice (based on tumor volume) compared to control” value in data set [1] (P<0.05, 5 mg/kg Days 1-7, 2.5 mg/kg Days 15-21) is reported as “significantly extended”. In addition, in data set [2] (IV Administration (5 mg/kg)), the “AUCIV (dose-normalized)” value amounted to 575 kg·ng·h/mL/mg and the t0.5 worked out at 0.959 h. For the same molecule, the “F (%) = 100 × AUCpo/AUCIV” value in data set [2] (PO 20 mg/kg vs IV 5 mg/kg) stood at 34.8%. In data set [2] (PO Administration (20 mg/kg)), the “AUCPO (dose-normalized)” value came to 199 kg·ng·h/mL/mg. For the same molecule, in data set [2] (setting [7]), the C0 is 2850 ng/mL and the clearance is 29 mL/min/kg. Besides, the Vd in data set [2] (in vivo, IV Administration (5 mg/kg), read-out: Vss) is 2.24 L/kg. Further, the peak level in data set [2] (in vivo, PO Administration (20 mg/kg)) (Cmax) was 2170 ng/mL. For the same molecule, the “Tumor growth after sub-cutaneous re-challenge with GL261 cells” value in data set [3] is given as “Tumors failed to grow in both LTS mice”. Moreover, the “Survival compared to vehicle control” value in data set [4] is “significanly extended survival”. The “Survival beyond 80 days (long term survival)” value in data set [4] (N=10) was 2 of the 10. In data set [5] (time point 0.25 h), the Kp at 0.25 h was determined as 1.08. In addition, in data set [5] (time point 0.5 h), the Kp at 0.5 h is 1.37. Also, the Kp at 1 h in data set [5] (time point 1 h) was found to be 1.53. The Kp at 2 h in data set [5] (time point 2 h) came out at 1.93. The Kp at 4 h in data set [5] (time point 4 h) worked out at 2.29. Moreover, in data set [5] (time point 6 h), the Kp at 6 h was 1.66. Besides, the Kp at 8 h in data set [5] (time point 8 h) was 1.24.
